ChEMBL document CHEMBL3885881, “DrugMatrix”

Species: Rattus norvegicus
Assay: DrugMatrix - Regimen: Daily Repeat
Assay type: toxicity, organism-based, Sprague-Dawley
Set-up: regimen Daily Repeat, gender Male, age 6-8 weeks
Settings: in vivo, po, route oral GAVAGE, vehicle 100 % WATER; for ABSOLUTE BASOPHIL / ABSOLUTE EOSINOPHIL / ABSOLUTE LYMPHOCYTE / ABSOLUTE MONOCYTE / ABSOLUTE SEGMENTED NEUTROPHIL / BASOPHIL / EOSINOPHIL / ERYTHROCYTE COUNT / HEMATOCRIT / HEMOGLOBIN / LEUKOCYTE COUNT / LYMPHOCYTE / MEAN CORPUSCULAR HEMOGLOBIN / MEAN CORPUSCULAR HEMOGLOBIN CONCENTRATION / MEAN CORPUSCULAR VOLUME / MONOCYTE / NEUTROPHIL / NUCLEATED RED BLOOD CELLS / PLATELET COUNT: tissue Blood; for ALANINE AMINOTRANSFERASE / ALBUMIN / ALKALINE PHOSPHATASE / ASPARTATE AMINOTRANSFERASE / BLOOD UREA NITROGEN / CARBON DIOXIDE / CHLORIDE / CHOLESTEROL / CREATINE PHOSPHOKINASE / CREATININE / GLUCOSE / LACTATE DEHYDROGENASE / LIPASE / PHOSPHORUS / POTASSIUM / SODIUM / TOTAL BILIRUBIN / TOTAL PROTEIN / URIC ACID: tissue Plasma
[1] = 14 mg/kg, 120 h, dose level Low, time 5 day
[2] = 1000 mg/kg, 72 h, dose level High, time 3 day
[3] = 1000 mg/kg, 120 h, dose level High, time 5 day

## C[C@H]1c2cccc(O)c2C(=O)C2=C(O)[C@]3(O)C(=O)C(C(N)=O)=C(O)[C@@H](N(C)C)[C@@H]3[C@@H](O)[C@@H]21.O [DOXYCYCLINE]
[1]
  ABSOLUTE BASOPHIL: 0 CELLS/uL
  ABSOLUTE EOSINOPHIL: 22.33 CELLS/uL
  ABSOLUTE LYMPHOCYTE: 6462.67 CELLS/uL
  ABSOLUTE MONOCYTE: 105.33 CELLS/uL
  ABSOLUTE SEGMENTED NEUTROPHIL: 909.67 CELLS/uL
  BASOPHIL: 0%
  EOSINOPHIL: 0.33%
  ERYTHROCYTE COUNT: 5.81 x10E6/uL
  HEMATOCRIT: 36.47%
  HEMOGLOBIN: 13.87 G/DL
  LEUKOCYTE COUNT: 7.5 x10E3/uL
  LYMPHOCYTE: 86.67%
  MEAN CORPUSCULAR HEMOGLOBIN: 23.9 pg
  MEAN CORPUSCULAR HEMOGLOBIN CONCENTRATION: 38.1 G/DL
  MEAN CORPUSCULAR VOLUME: 62.77 fL
  MONOCYTE: 1.33%
  NEUTROPHIL: 11.67%
  NUCLEATED RED BLOOD CELLS: 0.33 /100WBC
  PLATELET COUNT: 1055 x10E3/uL
  ALANINE AMINOTRANSFERASE: 56.67 u/L
  ALBUMIN: 4.23 G/DL
  ALKALINE PHOSPHATASE: 411.33 u/L
  ASPARTATE AMINOTRANSFERASE: 92 u/L
  BLOOD UREA NITROGEN: 17.67 mg/dL
  CARBON DIOXIDE: 32 mmol/L
  CHLORIDE: 101.67 MEQ/L
  CHOLESTEROL: 67 mg/dL
  CREATINE PHOSPHOKINASE: 551.33 u/L
  CREATININE: 0.19 mg/dL
  GLUCOSE: 154.67 mg/dL
  LACTATE DEHYDROGENASE: 117 u/L
  LIPASE: 11 u/L
  PHOSPHORUS: 11.33 mg/dL
  POTASSIUM: 6.02 MEQ/L
  SODIUM: 147 MEQ/L
  TOTAL BILIRUBIN: 0.1 mg/dL
  TOTAL PROTEIN: 6.37 G/DL
  URIC ACID: 0.8 mg/dL
[2]
  ABSOLUTE BASOPHIL: 0 CELLS/uL
  ABSOLUTE EOSINOPHIL: 0 CELLS/uL
  ABSOLUTE LYMPHOCYTE: 7696.67 CELLS/uL
  ABSOLUTE MONOCYTE: 0 CELLS/uL
  ABSOLUTE SEGMENTED NEUTROPHIL: 736.67 CELLS/uL
  BASOPHIL: 0%
  EOSINOPHIL: 0%
  ERYTHROCYTE COUNT: 5.23 x10E6/uL
  HEMATOCRIT: 32.1%
  HEMOGLOBIN: 12.57 G/DL
  LEUKOCYTE COUNT: 8.43 x10E3/uL
  LYMPHOCYTE: 92.33%
  MEAN CORPUSCULAR HEMOGLOBIN: 24.07 pg
  MEAN CORPUSCULAR HEMOGLOBIN CONCENTRATION: 39.17 G/DL
  MEAN CORPUSCULAR VOLUME: 61.4 fL
  MONOCYTE: 0%
  NEUTROPHIL: 7.67%
  NUCLEATED RED BLOOD CELLS: 0 /100WBC
  PLATELET COUNT: 1333.67 x10E3/uL
  ALANINE AMINOTRANSFERASE: 59.33 u/L
  ALBUMIN: 4.03 G/DL
  ALKALINE PHOSPHATASE: 294.67 u/L
  ASPARTATE AMINOTRANSFERASE: 81 u/L
  BLOOD UREA NITROGEN: 14.67 mg/dL
  CARBON DIOXIDE: 32.33 mmol/L
  CHLORIDE: 103 MEQ/L
  CHOLESTEROL: 89 mg/dL
  CREATINE PHOSPHOKINASE: 186 u/L
  CREATININE: 0.18 mg/dL
  GLUCOSE: 146 mg/dL
  LACTATE DEHYDROGENASE: 161.33 u/L
  LIPASE: 12.33 u/L
  PHOSPHORUS: 10.9 mg/dL
  POTASSIUM: 5.89 MEQ/L
  SODIUM: 146.35 MEQ/L
  TOTAL BILIRUBIN: 0.0667 mg/dL
  TOTAL PROTEIN: 5.97 G/DL
  URIC ACID: 1.2 mg/dL
[3]
  ABSOLUTE BASOPHIL: 0 CELLS/uL
  ABSOLUTE EOSINOPHIL: 19.67 CELLS/uL
  ABSOLUTE LYMPHOCYTE: 6922.33 CELLS/uL
  ABSOLUTE MONOCYTE: 67.67 CELLS/uL
  ABSOLUTE SEGMENTED NEUTROPHIL: 1023.67 CELLS/uL
  BASOPHIL: 0%
  EOSINOPHIL: 0.33%
  ERYTHROCYTE COUNT: 5.99 x10E6/uL
  HEMATOCRIT: 36.73%
  HEMOGLOBIN: 14.13 G/DL
  LEUKOCYTE COUNT: 8.03 x10E3/uL
  LYMPHOCYTE: 85.67%
  MEAN CORPUSCULAR HEMOGLOBIN: 23.63 pg
  MEAN CORPUSCULAR HEMOGLOBIN CONCENTRATION: 38.53 G/DL
  MEAN CORPUSCULAR VOLUME: 61.37 fL
  MONOCYTE: 1%
  NEUTROPHIL: 13%
  NUCLEATED RED BLOOD CELLS: 0 /100WBC
  PLATELET COUNT: 1104.67 x10E3/uL
  ALANINE AMINOTRANSFERASE: 56 u/L
  ALBUMIN: 3.97 G/DL
  ALKALINE PHOSPHATASE: 312 u/L
  ASPARTATE AMINOTRANSFERASE: 84.33 u/L
  BLOOD UREA NITROGEN: 21 mg/dL
  CARBON DIOXIDE: 32 mmol/L
  CHLORIDE: 99.67 MEQ/L
  CHOLESTEROL: 87.33 mg/dL
  CREATINE PHOSPHOKINASE: 239.67 u/L
  CREATININE: 0.26 mg/dL
  GLUCOSE: 138 mg/dL
  LACTATE DEHYDROGENASE: 100.67 u/L
  LIPASE: 11.33 u/L
  PHOSPHORUS: 10.53 mg/dL
  POTASSIUM: 6.12 MEQ/L
  SODIUM: 146.5 MEQ/L
  TOTAL BILIRUBIN: 0.13 mg/dL
  TOTAL PROTEIN: 5.87 G/DL
  URIC ACID: 0.97 mg/dL
